Bridge positions count the residues as written; N and C are the ends. Square brackets hold non-standard residues; d marks the D form. Peptide text beside a SMILES is read from it. Nspe = C[C@H](NCC(=O)O)c1ccccc1; Nlys = NCCCCNCC(=O)O
Test system: CJW7753 cells in wide trenches
Test: Wide-trench microfluidics, growth inhibition of dense populations
Format: cell-based, Escherichia coli
Details: 2X MIC in feeding channel, 37°C, M9gluCAAT with 0.08% Pluronic
Description: The design of the wide-trench microfluidics was adapted from the one reported by ([Lambert & Kussell, 2014]). As reported before ([Lin & Jacobs-Wagner, 2022]), the master mold was manufactured in the clean room of the School of Engineering and Applied Science at Yale University. UV photolithography (EVG 620 Mask Aligner) was applied on Si wafers with SU-8 photoresist to generate two layers of positive patterns. The lower layer contained the bacterial culture chambers (wide trenches) while the upper layer contained the large trench for the flowing culture medium. The large feeding region features a ~200 μm width and ~30 μm height. The wide trenches have a width of 7 μm, a depth of ~34–38 μm, and a height of 1.29 μm.
A solution of 9:1 polydimethylsiloxane (PDMS) and curing agent was mixed, degassed to remove air bubbles, poured onto the silicon wafer, and cured at 64.5°C for > 3 h. Note that the 9:1 PDMS:curing agent ratio was used instead of the standard 10:1 to reduce the hydrophobicity of the PDMS and mitigate hydrophobic interactions with AMPs. Once hardened, PDMS chips were cut out from the wafer, and a 1.2 mm biopsy punch was used to create inlet and outlet holes. The current chip design features two independent channels per chip. To allow for a higher temperature during PDMS-glass bonding, the glass bottom part of the dish was used during the following steps (without the plastic support glued to it). […]
To analyse wide-trench time-lapse images, drift correction was first performed using OmniSegger, followed by a custom Python script (drift_correction_wide_trenches.py) to correct for the slow residual drift that remained after the first correction step. The resulting drift-corrected timelapse data were analysed with the OmniSegger pipeline using the ribosome-fluorescence wide-trench Omnipose model described above, allowing cell segmentation and cell linking to be performed in the same general manner as for the PDMS-microwell experiments. […]

In the case of `C[C@@H](c1ccccc1)N(CC(N)=O)C(=O)CN(C(=O)CN(CCCCN)C(=O)CN(C(=O)CN(C(=O)CN(CCCCN)C(=O)CN(C(=O)CN(C(=O)CN(CCCCN)C(=O)CN(C(=O)CN(C(=O)CNCCCCN)[C@@H](C)c1ccccc1)[C@@H](C)c1ccccc1)[C@@H](C)c1ccccc1)[C@@H](C)c1ccccc1)[C@@H](C)c1ccccc1)[C@@H](C)c1ccccc1)[C@@H](C)c1ccccc1` [TM1] (H-[Nlys][Nspe][Nspe][Nlys][Nspe][Nspe][Nlys][Nspe][Nspe][Nlys][Nspe][Nspe]-NH2), the “Growth inhibition of dense cell population in wide trenches” value (from here on “Growth inhibition”) is reported as “localized growth inhibition”.
In the case of `CC[C@@H](C)[C@@H](NC(=O)[C@@H](C)NC(=O)[C@@H](CCCNC(=N)N)NC(=O)[C@@H](Cc1c[nH]c2ccccc12)NC(=O)[C@@H](CCC(N)=O)NC(=O)[C@H](N)C(C)C)C(=O)N[C@H](CCCNC(=N)N)C(=O)N[C@@H](C(=O)N[C@H](CCCNC(=N)N)C(=O)N[C@@H](C(=O)N[C@@H](C(=O)N[C@H](CCCNC(=N)N)C(N)=O)[C@H](C)CC)C(C)C)C(C)C` [DJK-5] (H-[dV][dQ][dW][dR][dA][dI][dR][dV][dR][dV][dI][dR]-NH2; N-terminus and C-terminus assumed), the “Growth inhibition” value is reported as “able to inhibit cell growth throughout the entire wide trenches”.
With `CC[C@H](C)[C@@H]1NC(=O)CNC(=O)[C@H](CCCNC(=N)N)NC(=O)[C@H](Cc2ccc(O)cc2)NC(=O)[C@@H]2CSSC[C@H](NC1=O)C(=O)N[C@@H](Cc1ccc(O)cc1)C(=O)N[C@@H](CCCNC(=N)N)C(=O)N[C@@H](CCCNC(=N)N)C(=O)N[C@H](C(=O)N[C@@H](CCCNC(=N)N)C(N)=O)CSSC[C@H](NC(=O)[C@H](Cc1c[nH]c3ccccc13)NC(=O)[C@@H](N)CCCCN)C(=O)N[C@@H](Cc1ccccc1)C(=O)N[C@@H](CCCNC(=N)N)C(=O)N[C@@H](C(C)C)C(=O)N2` [Tac1, tachyplesin-1] (H-KWCFRVCYRGICYRRCR-NH2; disulfide 3-16, 7-12 (inferred); N-terminus assumed) the “Growth inhibition” value was “primarily inhibited the growth of cells near the top of the trenches”.
